Activity calls are given as the source filed them. The calls are words filed in the database; no cut-off is given here.
Columns and labels:
[1] = target: P2Y purinoceptor 2 (Homo sapiens) (UniProt P41231); test: Activity at P2Y2 receptor expressed in HEK293 cells at 10 uM to 1 nM; type: cell-based
[2] = target: T1, P2X purinoceptor 7 (Rattus norvegicus) (UniProt Q64663); test: Antagonist activity at P2X7R in BzATP-stimulated rat spinal cord assessed as decrease in fluorescent propidium iodide dye uptake at 1 uM; type: functional
T1 sequence (whole entry): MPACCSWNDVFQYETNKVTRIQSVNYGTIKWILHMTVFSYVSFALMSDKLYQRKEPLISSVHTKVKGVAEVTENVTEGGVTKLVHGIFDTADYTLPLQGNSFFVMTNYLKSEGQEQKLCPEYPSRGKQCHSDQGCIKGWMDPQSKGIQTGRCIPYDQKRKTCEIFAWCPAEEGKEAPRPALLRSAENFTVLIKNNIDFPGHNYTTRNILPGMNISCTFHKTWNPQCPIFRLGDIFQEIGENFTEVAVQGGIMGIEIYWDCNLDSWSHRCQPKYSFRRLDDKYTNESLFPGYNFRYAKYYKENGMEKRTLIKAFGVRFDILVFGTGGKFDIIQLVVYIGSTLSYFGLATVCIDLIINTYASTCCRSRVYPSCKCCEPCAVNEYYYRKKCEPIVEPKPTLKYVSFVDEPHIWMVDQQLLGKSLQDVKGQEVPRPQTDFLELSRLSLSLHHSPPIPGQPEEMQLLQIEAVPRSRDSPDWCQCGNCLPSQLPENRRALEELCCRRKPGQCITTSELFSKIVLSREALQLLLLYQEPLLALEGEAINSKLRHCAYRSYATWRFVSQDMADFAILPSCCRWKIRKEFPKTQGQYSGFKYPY

[3] = target: P2Y purinoceptor 4 (Homo sapiens) (UniProt P51582); test: Agonist activity at P2Y4 receptor expressed in HEK293 cells at 10 uM to 1 nM; type: functional, cell-based
P2Y purinoceptor 4 (Homo sapiens), sequence (P51582 whole entry): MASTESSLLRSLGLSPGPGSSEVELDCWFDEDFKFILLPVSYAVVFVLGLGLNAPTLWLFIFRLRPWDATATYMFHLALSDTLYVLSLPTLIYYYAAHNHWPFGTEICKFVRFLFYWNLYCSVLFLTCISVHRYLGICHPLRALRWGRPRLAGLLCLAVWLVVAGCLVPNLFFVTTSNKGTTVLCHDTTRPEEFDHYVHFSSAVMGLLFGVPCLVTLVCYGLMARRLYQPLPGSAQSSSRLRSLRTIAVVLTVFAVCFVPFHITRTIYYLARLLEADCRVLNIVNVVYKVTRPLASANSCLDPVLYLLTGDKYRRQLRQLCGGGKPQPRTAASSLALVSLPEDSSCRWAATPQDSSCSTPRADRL

[4] = target: P2Y purinoceptor 1 (Homo sapiens) (UniProt P47900); test: Activity at P2Y1 expressed in HEK293 cells at 10 uM to 1 nM; type: cell-based
P2Y purinoceptor 1 (Homo sapiens), sequence (P47900 whole entry): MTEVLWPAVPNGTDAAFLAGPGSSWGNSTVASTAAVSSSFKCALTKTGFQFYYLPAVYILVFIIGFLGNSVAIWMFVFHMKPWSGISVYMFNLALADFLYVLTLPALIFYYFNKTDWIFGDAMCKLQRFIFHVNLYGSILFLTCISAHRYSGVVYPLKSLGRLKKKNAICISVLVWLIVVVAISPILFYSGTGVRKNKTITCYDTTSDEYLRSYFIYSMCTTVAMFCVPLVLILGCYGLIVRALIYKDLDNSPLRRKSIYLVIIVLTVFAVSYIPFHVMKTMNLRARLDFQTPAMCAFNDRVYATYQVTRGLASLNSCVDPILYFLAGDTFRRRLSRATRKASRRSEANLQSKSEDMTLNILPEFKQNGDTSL

P2Y purinoceptor 2 (Homo sapiens), sequence (P41231 whole entry): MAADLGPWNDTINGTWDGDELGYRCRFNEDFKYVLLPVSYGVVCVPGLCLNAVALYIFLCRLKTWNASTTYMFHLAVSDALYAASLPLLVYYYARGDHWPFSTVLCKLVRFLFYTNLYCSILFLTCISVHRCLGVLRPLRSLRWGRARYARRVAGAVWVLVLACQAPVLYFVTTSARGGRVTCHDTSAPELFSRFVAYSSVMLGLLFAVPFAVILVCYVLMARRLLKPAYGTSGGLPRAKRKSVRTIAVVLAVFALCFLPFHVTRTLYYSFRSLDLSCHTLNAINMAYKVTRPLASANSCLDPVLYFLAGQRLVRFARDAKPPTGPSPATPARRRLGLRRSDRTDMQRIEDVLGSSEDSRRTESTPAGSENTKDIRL

| Structure (SMILES) | Activity [1] | Activity [2] | Activity [3] | Activity [4] |
| --- | --- | --- | --- | --- |
| COc1ccc(Cl)c(C(=O)NCC23C4C5C6C4C2C6C53)c1 (centres undefined) | inactive | Active | inactive | inactive |
| O=C(NCC12C3C4C5C3C1C5C42)c1ccccc1F (centres undefined) | inactive | Active | inactive | inactive |
| O=C(NCC12CC3CC(CC(C3)C1)C2)c1ccc(F)cc1 | inactive | Active | inactive | inactive |

Second part, the compound after the results:

| Activity [1] | Activity [2] | Activity [3] | Activity [4] | Structure (SMILES) |
| --- | --- | --- | --- | --- |
| inactive | Active | inactive | inactive | O=C(NCC12CC3CC(CC(C3)C1)C2)c1ccccc1F |
| inactive | Active | inactive | inactive | COc1ccc(Cl)c(C(=O)NCC23CC4CC(CC(C4)C2)C3)c1 |
| inactive | Active | inactive | inactive | O=C(NCC12C3C4C5C3C1C5C42)c1ccc(F)cc1 (centres undefined) |
